Measurements: patent EP0435826A1, “Intravenous solutions for epilepsy” (CIBA-GEIGY AG, priority 1989, dated 1991)

Key:
[1] = tested on: Tonische Konvulsionen der Hinterextremitäten; experiment: Maximal electroshock test in rats (Elektroschock Test an Ratten); format: in vivo; details: for ED50: Rattus norvegicus, read-out: Schutz vor dem maximalen Elektroschock ED50
From the text: (§1) Beispiel 5: Die akute Schutzwirkung von Carbamazepin und Oxcarbazepin nach intravenöser Verabreichung im Vergleich zur oralen wurde mit Hilfe des maximalen Elektroschocks ermittelt. Die folgenden Methoden wurden verwendet:
-Elektroschock Test an Ratten: Tonische Konvulsionen der Hinterextremitäten wurden durch Verabreichung eines Wechselstroms von 50 Hz und 36 mA während 0,63 Sekunden mit Hilfe von Cornealelektroden ausgelöst. Es wurden 10 Ratten pro Dosis und Zeiteinheit verwendet; eine Gruppe diente als Kontrolle. Die Anzahl der Ratten, die keine tonische Konvulsionen der Hinterextremitäten aufwiesen, wurde für jede Gruppe bestimmt. Die ED₅₀ wurde mit Hilfe der Regressionsanalyse nach der Methode von Spearman und Kärber berechnet.
(§2) -Elektroschock Test an Mäusen: Tonische Konvulsionen der Hinterextremitäten wurden durch Verabreichung eines Wechselstromes von 50 Hz und 18 mA während 0,2 Sekunden mittels Cornealelektroden ausgelöst. Für jede Dosis und Zeiteinheit wurden 10 Mäuse verwendet; eine Gruppe diente als Kontrolle. Die Anzahl der Mäuse, die keine tonische Konvulsionen der Hinterextremitäten zeigte, wurde für jede Gruppe bestimmt. Die ED₅₀ wurde mit Hilfe der Regressionsanalyse nach der Methode von Spearman und Kärber bestimmt. Die Injektionsvolumina für i.v. Verabreichung sind 5 ml/kg bei Mäusen und 1 ml/kg bei Ratten.
[…] Die ED₅₀-Werte wurden durch Regressionsanalyse aus drei verschiedenen Dosen (10 Ratten pro Dosis) berechnet.

[2] = tested on: Tonische Konvulsionen der Hinterextremitäten; experiment: Maximal electroshock test in mice (Elektroschock Test an Mäusen); format: in vivo; details: Mäuse; for ED50: Mus musculus, read-out: Schutz vor dem maximalen Elektroschock ED50
From the text: as §1, §2

[3] = Solubility and properties of aqueous Hydroxypropyl-γ-cyclodextrin injection solutions; details: 22°C, in 40%-iger wässriger Lösung von Hydroxypropyl-γ-cyclodextrin
Method: In 100 ml dieser Lösung werden 1500 mg Carbamazepin durch Rühren bei Raumtemperatur (= 20°C) gelöst.
In 100 ml dieser Lösung werden 400,0 mg fein gemahlenes Oxcarbazepin durch Rühren bei 22°C gelöst.

[4] = iv, 5 min, intravenös, 5 min before shock
[5] = iv, 0.25 h, intravenös, 15 min before shock
[6] = po, 5 min, oral (suspension in Methocel®), 5 min
[7] = po, 0.5 h, oral (suspension in Methocel®), 30 min
[8] = po, 1 h, oral (suspension in Methocel®), 60 min
[9] = iv, 2.5 min, intravenös, 2,5 min
[10] = po, 2 h, oral (suspension in Methocel®), 120 min
[11] = po, 0.25 h, oral (suspension in Methocel®), 15 min

| SMILES | ED50 [1, 4] | ED50 [1, 5] | ED50 ([1]; iv, 0.5 h, intravenös, 30 min) | ED50 ([1]; iv, 1 h, intravenös, 60 min) | ED50 ([1]; iv, 2 h, intravenös, 120 min) | ED50 [1, 7] | ED50 [1, 8] | ED50 [2, 9] | ED50 ([2]; iv, 5 min, intravenös, 5 min) | ED50 ([2]; iv, 0.25 h, intravenös, 15 min) | ED50 ([2]; iv, 0.5 h, intravenös, 30 min) | ED50 ([2]; iv, 1 h, intravenös, 60 min) | ED50 [2, 8] | ED50 [2, 10] | also measured |
| --- | --- | --- | --- | --- | --- | --- | --- | --- | --- | --- | --- | --- | --- | --- | --- |
| NC(=O)N1c2ccccc2C=Cc2ccccc21 [Carbamazepin, 5H-Dibenz[b,f]azepin-5-carboxamid] | 2.5 mg/kg | 2.5 mg/kg | 2 mg/kg | 3.1 mg/kg | 4.3 mg/kg | 9.6 mg/kg | 10 mg/kg | 2.9 mg/kg | 2.6 mg/kg | 4.7 mg/kg | 6.8 mg/kg | 6.5 mg/kg | 13 mg/kg | 27 mg/kg | ED50 ([1]; po, 2.5 min, oral (suspension in Methocel®), 2,5 min): 60 mg/kg; ED50 [1, 6]: 60 mg/kg; ED50 ([2]; iv, 2 h, intravenös, 120 min): 17.3 mg/kg; Schutz vor dem maximalen Elektroschock ([2]; oral (suspension in Methocel®), 2,5 min, bei 60 mg/kg): 10 % bei 60 mg/kg |
| NC(=O)N1c2ccccc2CC(=O)c2ccccc21 [Oxcarbazepin, 10,11-Dihydro-10-oxo-5-dibenz[b,f]-acepin-5-carboxamid] | 3.44 mg/kg | 2.5 mg/kg | 3.44 mg/kg | 4.85 mg/kg | 5.7 mg/kg | 12.2 mg/kg | 15.8 mg/kg | 4.35 mg/kg | 4.35 mg/kg | 5 mg/kg | 7.07 mg/kg | 10.7 mg/kg | 17.8 mg/kg | 36.3 mg/kg | ED50 [1, 11]: 12.2 mg/kg; ED50 [1, 10]: 16.1 mg/kg; Schutz vor dem maximalen Elektroschock ED50 ([1]; intravenös, 15 min before shock, 15 min): 3,44 mg/kg; Schutz vor dem maximalen Elektroschock ([1]; oral (suspension in Methocel®), 5 min, bei 30 mg/kg): 20 % bei 30 mg/kg; ED50 [2, 6]: 40.4 mg/kg; ED50 [2, 11]: 14.5 mg/kg; ED50 [2, 7]: 15.7 mg/kg; Schutz vor dem maximalen Elektroschock ED50 ([2]; intravenös, 2,5 min, 2.5 min): 2,35 mg/kg; Schutz vor dem maximalen Elektroschock ED50 ([2]; intravenös, 15 min): 5,00 mg/kg; Schutz vor dem maximalen Elektroschock ED50 ([2]; intravenös, 60 min): 10,72 mg/kg; Schutz vor dem maximalen Elektroschock ([2]; intravenös, 120 min, bei 20 mg/kg): 20 % bei 20 mg/kg; Löslichkeit [3]: 37 mg in 10,0 ml |
